Structures can show the parent of a compound that is named as a salt.
Experiments:
[1] = test system: SPRAGUE DAWLEY® rats; assay: Assessment of in vivo MCHR1 activity: weight change in rats given a choice of chow and high fat/high sucrose diet; set-up: species or system rat; conditions: 30 mg/kg p.o. daily for four days
Method: Male SPRAGUE DAWLEY® (CD, Charles River Breeding Laboratory) rats weighing approximately 240 grams were placed in individual plastic cages with ALPHADRI® bedding. The room was maintained at 72° F. and 50% humidity, and a 12/12 light dark cycle with lights out at 1600 hours. The rats were conditioned for 5 days prior to the start of the study to having a choice of foods.
Baseline body weight was measured prior to drug treatment on day 0 of the study. Baseline food consumption was the average of the 3 days prior to the first drug treatment. Drug was administered daily p.o. at 2.0 ml/kg at 1500 hours beginning on day 0 and continuing daily through day 4 as a suspension in 0.5% methyl cellulose, 0.1% Tween 80 in water at 3.0, 10 and 30 mg/kg p.o. All data were evaluated using ANOVA and Fishers PLSD statistics.

[2] = molecular target: human melanin concentrating hormone receptor (MCHR1) (Homo sapiens (Human), UniProt Q99705, A5T/E4Q); assay: Radioligand binding assay for assessment of MCHR1 activity; conditions: competition with [Phe13,[125I]Tyr19]-MCH; membranes of HEK-293 cells expressing mutated hMCHR1
Method: Compounds of Formula I were initially characterized in an in vitro binding assay to determine their Ki or ability to antagonize binding of a peptide agonist to the human melanin concentrating hormone receptor (MCHR1). Representative compounds of the present invention had the following Ki values:
Membranes from stably transfected HEK-293 cells expressing a mutated (E4Q, AST) hMCHRI receptor were prepared by dounce homogenization and differential centrifugation. Binding experiments were carried out with 0.5-1.0 ug of membrane protein incubated in a total of 0.2 ml in 25 mM HEPES (pH 7.4) with 10 mM MgCl2, 2 mM EGTA, and 0.1% BSA (Binding Buffer) for 90 min. For competition binding assays, reactions were carried out in the presence of with 0.06-0.1 nM [Phe^13, [^125I]Tyr^19]-MCH and increasing concentrations of unlabeled test molecules. Reactions were terminated by rapid vacuum filtration over 96 well-GFC Unifilter plates pre-coated with 0.075 ml binding buffer containing 1% BSA, and washed 3 times with 0.4 ml of Phospho-buffered Saline (pH 7.4) containing 0.01% TX-100. Filters were dried; 0.05 ml microscint 20 was added to each well and radioactivity was subsequently quantified by scintillation counting on a TOPCOUNT® microplate scintillation counter (Packard). Inhibitory constants were determined by nonlinear least squares analysis using a four parameter logistic equation.

Sequence of human melanin concentrating hormone receptor (MCHR1) (Q99705 whole entry E4Q/A5T): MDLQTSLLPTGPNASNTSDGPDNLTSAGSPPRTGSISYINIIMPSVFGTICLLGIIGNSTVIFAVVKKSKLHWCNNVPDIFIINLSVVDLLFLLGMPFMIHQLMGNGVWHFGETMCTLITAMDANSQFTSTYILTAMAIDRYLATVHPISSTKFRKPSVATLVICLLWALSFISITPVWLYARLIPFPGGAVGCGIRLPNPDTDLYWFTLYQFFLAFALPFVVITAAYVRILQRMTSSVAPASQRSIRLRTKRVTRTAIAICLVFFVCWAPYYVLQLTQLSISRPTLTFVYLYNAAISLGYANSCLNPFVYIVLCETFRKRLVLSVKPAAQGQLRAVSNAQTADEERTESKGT

Ki [2] [nM]	SMILES	% Weight change versus Control after daily Administration of drug at 30 mg/kg for four days [1] [%]
–	COc1cc(-n2ccc(COc3ccc(Cl)cc3)cc2=O)ccc1OCC(C)(C)OC(=O)CN [Example P-1, 1-(4-(4-((4-Chlorophenoxy)methyl)-2-oxopyridin-1(2H)-yl)-2-methoxyphenoxy)-2-methylpropan-2-yl 2-aminoacetate hydrochloride]	3.4
–	COc1cc(-n2ccc(OCc3ccc(Cl)cc3)cc2=O)ccc1OCC(C)(C)OC(=O)CN [Example P-3]	6.1
4	COc1cc(-n2ccc(SCc3ccc(Cl)cc3)cc2=O)ccc1OCC(C)(C)O [Example D-4, 4-(4-Chlorobenzylthio)-1-(4-(2-hydroxy-2-methylpropoxy)-3-methoxyphenyl)pyridin-2(1H)-one]	–
2340	COc1cc(-n2ccc(COc3ccccc3)cc2=O)ccc1OCC(C)(C)O [Example A-6]	–
3	COc1cc(-n2ccc(-c3ccc(OC(F)(F)F)cc3)cc2=O)ccc1OCCO [Example C-1]	–
500	COc1cc(-n2ccc(CNc3ccc(Cl)cc3)cc2=O)ccc1OCC(C)(C)O [Example A-33]	–
29	COc1cc(-n2ccc(CSc3ccc(Cl)cc3)cc2=O)ccc1OCC(C)(C)O [Example A-29]	–
7	COc1cc(-n2ccc(-c3ccc(C(F)(F)F)cc3)cc2=O)ccc1OCC(C)(C)O [Example B-2]	–

Reference: patent US8563583B2, “Pyridone analogs useful as melanin concentrating hormone receptor-1 antagonists” (Bristol-Myers Squibb Company, priority 2009, dated 2013)
